18 molecules from patent publication US10138236B2, “Factor xia-inhibiting pyridobenzazepine and pyridobenzazocine derivatives” (BAYER PHARMA AKTIENGESELLSCHAFT, priority 2014, dated 2018) can be followed below.

The target of one assay is human plasma kallikrein (Homo sapiens (Human), UniProt P03952). The assay is described as follows: Determination of the plasma kallikrein activity. The class given is biochemical. The following applies: plasma kallikrein from Kordia, substrate H-Pro-Phe-Arg-AMC, fluorescence. As to the method: a.5) Determination of the Plasma Kallikrein Activity
Chain of human plasma kallikrein (P03952 391-638): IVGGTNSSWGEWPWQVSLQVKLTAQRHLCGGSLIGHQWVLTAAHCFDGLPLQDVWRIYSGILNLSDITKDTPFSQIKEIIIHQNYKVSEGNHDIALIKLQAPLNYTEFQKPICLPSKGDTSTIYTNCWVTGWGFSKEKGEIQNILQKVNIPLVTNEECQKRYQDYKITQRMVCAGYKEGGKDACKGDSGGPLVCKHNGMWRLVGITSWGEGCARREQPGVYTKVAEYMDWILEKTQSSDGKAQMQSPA
Chain of human plasma kallikrein (P03952 20-390 partner): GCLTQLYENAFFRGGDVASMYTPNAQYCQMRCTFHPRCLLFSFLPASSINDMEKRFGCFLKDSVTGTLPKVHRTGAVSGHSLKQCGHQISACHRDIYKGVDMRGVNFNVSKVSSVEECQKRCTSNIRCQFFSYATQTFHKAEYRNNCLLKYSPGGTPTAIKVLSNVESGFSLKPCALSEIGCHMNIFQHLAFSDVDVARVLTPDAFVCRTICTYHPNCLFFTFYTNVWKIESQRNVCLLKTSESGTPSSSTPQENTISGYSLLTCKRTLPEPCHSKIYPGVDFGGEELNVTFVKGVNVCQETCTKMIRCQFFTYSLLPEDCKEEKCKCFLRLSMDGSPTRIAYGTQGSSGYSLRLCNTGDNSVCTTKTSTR
To determine the plasma kallikrein inhibition of the substances according to the invention, a biochemical test system is used which utilizes the reaction of a peptidic plasma kallikrein substrate to determine the enzymatic activity of human plasma kallikrein. Here, plasma kallikrein cleaves from the peptic plasma kallikrein substrate the C-terminal aminomethylcoumarin (AMC), the fluorescence of which is measured. The determinations are carried out in microtitre plates.
1 μl of the diluted substance solutions is placed into each of the wells of white microtitre plates from Greiner (384 wells). 20 μl of assay buffer (50 mM Tris/HCl pH 7.4; 100 mM sodium chloride solution; 5 mM of calcium chloride solution; 0.1% of bovine serum albumin) and 20 μl of plasma kallikrein from Kordia (0.6 nM in assay buffer) are then added successively. After 15 min of incubation, the enzyme reaction is started by addition of 20 μl of the substrate H-Pro-Phe-Arg-AMC dissolved in assay buffer (10 μM in assay buffer) from Bachem, the mixture is incubated at room temperature (22° C.) for 30 min and fluorescence is then measured (excitation: 360 nm, emission: 460 nm). The measured emissions of the test batches with test substance are compared to those of control batches without test substance (only dimethyl sulphoxide instead of test substance in dimethyl sulphoxide), and IC50 values are calculated from the concentration/activity relationships.

The next assay has as its target human factor XIa (Homo sapiens (Human), UniProt P03951). Briefly: Measurement of FXIa inhibition. The class given is biochemical. As to conditions: factor XIa from Kordia, substrate Boc-Glu(OBzl)-Ala-Arg-AMC, fluorescence. As to the method: a.1) Measurement of FXIa Inhibition
The factor XIa inhibition of the substances according to the invention is determined using a biochemical test system which utilizes the reaction of a peptidic factor XIa substrate to determine the enzymatic activity of human factor XIa. Here, factor XIa cleaves from the peptic factor XIa substrate the C-terminal aminomethylcoumarin (AMC), the fluorescence of which is measured. The determinations are carried out in microtitre plates.
1 μl of the diluted substance solutions is placed into each of the wells of white microtitre plates from Greiner (384 wells). […] After 15 min of incubation, the enzyme reaction is started by addition of 20 μl of the factor XIa substrate Boc-Glu(OBzl)-Ala-Arg-AMC dissolved in assay buffer (10 μM in assay buffer) from Bachem, the mixture is incubated at room temperature (22° C.) for 30 min and fluorescence is then measured (excitation: 360 nm, emission: 460 nm). The measured emissions of the test batches with test substance are compared to those of control batches without test substance (only dimethyl sulphoxide instead of test substance in dimethyl sulphoxide), and IC50 values are calculated from the concentration/activity relationships.

SMILES strings stand for the structures.

Chain of human factor XIa (P03951 388-625): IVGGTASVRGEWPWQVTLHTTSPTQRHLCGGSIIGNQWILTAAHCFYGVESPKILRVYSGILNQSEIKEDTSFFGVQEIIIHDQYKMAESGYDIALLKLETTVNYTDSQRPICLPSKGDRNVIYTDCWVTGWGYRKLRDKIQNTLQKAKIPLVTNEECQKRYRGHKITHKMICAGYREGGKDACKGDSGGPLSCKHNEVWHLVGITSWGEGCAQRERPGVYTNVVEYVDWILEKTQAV
Chain of human factor XIa (P03951 19-387 partner): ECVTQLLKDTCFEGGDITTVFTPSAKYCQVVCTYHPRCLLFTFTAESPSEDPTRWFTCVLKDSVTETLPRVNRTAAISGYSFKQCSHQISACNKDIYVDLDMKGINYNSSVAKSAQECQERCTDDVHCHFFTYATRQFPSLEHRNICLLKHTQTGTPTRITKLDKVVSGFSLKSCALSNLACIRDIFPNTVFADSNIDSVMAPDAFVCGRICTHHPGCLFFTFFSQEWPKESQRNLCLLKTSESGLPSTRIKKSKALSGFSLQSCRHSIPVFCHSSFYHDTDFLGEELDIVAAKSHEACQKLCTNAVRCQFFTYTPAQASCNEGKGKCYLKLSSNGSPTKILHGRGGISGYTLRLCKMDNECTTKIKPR

As a reminder, the IC50 is the concentration needed to halve the response being measured. Read a high IC50 as a need for much substance. Regarding `CCC(C(=O)Nc1ccc(-c2noc(=O)[nH]2)cc1)n1cc2c(cc1=O)-c1cc(Cl)ccc1CC1(CC1)NC2=O` (stereo not drawn) [Example 11, 2-(11′-Chloro-2′,5′-dioxo-2′,5′,6′,8′-tetrahydro-3′H-spiro[cyclopropane-1,7′-pyrido[3,4-e][3]benzazocine]-3′-yl)-N-[4-(5-oxo-4,5-dihydro-1,2,4-oxadiazol-3-yl)phenyl]butanamide], the IC50 on human plasma kallikrein worked out at 1700 nM; at human factor XIa, 16 nM.
For `COCCC(C(=O)Nc1ccc(C(=O)O)cc1)n1cc2c(cc1=O)-c1cc(Cl)ccc1CC1(CC1)NC2=O` (stereo not drawn) [Example 12, 4-{[2-(11′-Chloro-2′,5′-dioxo-2′,5′,6′,8′-tetrahydro-3′H-spiro[cyclopropane-1,7′-pyrido[3,4-e][3]benzazocine]-3′-yl)-4-methoxybutanoyl]amino}benzoic acid], in that order: 390 nM and 1.9 nM.
For `COCCC(C(=O)Nc1ccc(C(N)=O)c(F)c1)n1cc2c(cc1=O)-c1cc(Cl)ccc1CC1(CC1)NC2=O` (stereo not drawn) [Example 13, 4-{[2-(11′-Chloro-2′,5′-dioxo-2′,5′,6′,8′-tetrahydro-3′H-spiro[cyclopropane-1,7′-pyrido[3,4-e][3]benzazocine]-3′-yl)-4-methoxybutanoyl]amino}-2-fluorobenzamide], in that order: 780 nM and 27 nM.
For `COCCC(C(=O)Nc1ccc2[nH]c(=O)[nH]c2c1)n1cc2c(cc1=O)-c1cc(Cl)ccc1CC1(CC1)NC2=O` (stereo not drawn) [Example 14, 2-(11′-Chloro-2′,5′-dioxo-2′,5′,6′,8′-tetrahydro-3′H-spiro[cyclopropane-1,7′-pyrido[3,4-e][3]benzazocine]-3′-yl)-4-methoxy-N-(2-oxo-2,3-dihydro-1H-benzimidazol-5-yl)butanamide], in that order: 230 nM and 18 nM.
For the molecule `COCCC(C(=O)Nc1ccc2nn(C)cc2c1)n1cc2c(cc1=O)-c1cc(Cl)ccc1CC1(CC1)NC2=O` (stereo not drawn) [Example 15, 2-(11′-Chloro-2′,5′-dioxo-2′,5′,6′,8′-tetrahydro-3′H-spiro[cyclopropane-1,7′-pyrido[3,4-e][3]benzazocine]-3′-yl)-4-methoxy-N-(2-methyl-2H-indazol-5-yl)butanamide], the 50% inhibitory concentration (IC50) on human plasma kallikrein amounted to 240 nM; on human factor XIa, 8.2 nM.
For `COCCC(C(=O)Nc1ccn2nccc2c1)n1cc2c(cc1=O)-c1cc(Cl)ccc1CC1(CC1)NC2=O` (stereo not drawn) [Example 16, 2-(11′-Chloro-2′,5′-dioxo-2′,5′,6′,8′-tetrahydro-3′H-spiro[cyclopropane-1,7′-pyrido[3,4-e][3]benzazocine]-3′-yl)-4-methoxy-N-(pyrazolo[1,5-a]pyridin-5-yl)butanamide], in that order: 210 nM and 11 nM.
For the molecule `COCCC(C(=O)Nc1ccc2nccn2c1)n1cc2c(cc1=O)-c1cc(Cl)ccc1CC1(CC1)NC2=O` (stereo not drawn) [Example 17, 2-(11′-Chloro-2′,5′-dioxo-2′,5′,6′,8′-tetrahydro-3′H-spiro[cyclopropane-1,7′-pyrido[3,4-e][3]benzazocine]-3′-yl)-N-(imidazo[1,2-a]pyridin-6-yl)-4-methoxybutanamide], the 50% inhibitory concentration (IC50) against human plasma kallikrein came out at 1200 nM; against human factor XIa it was 44 nM.
Consider `COCCC(C(=O)Nc1ccc2[nH]ncc2c1)n1cc2c(cc1=O)-c1cc(Cl)ccc1CC1(CC1)NC2=O` (stereo not drawn) [Example 18, 2-(11′-Chloro-2′,5′-dioxo-2′,5′,6′,8′-tetrahydro-3′H-spiro[cyclopropane-1,7′-pyrido[3,4-e][3]benzazocine]-3′-yl)-N-(1H-indazol-5-yl)-4-methoxybutanamide], for which the results for the IC50 at human plasma kallikrein and against human factor XIa were 330 nM and 21 nM, respectively.
For `COCCC(C(=O)Nc1ccc2c(=O)n(C)[nH]c2c1)n1cc2c(cc1=O)-c1cc(Cl)ccc1CC1(CC1)NC2=O` (stereo not drawn) [Example 19, 2-(11′-Chloro-2′,5′-dioxo-2′,5′,6′,8′-tetrahydro-3′H-spiro[cyclopropane-1,7′-pyrido[3,4-e][3]benzazocine]-3′-yl)-4-methoxy-N-(2-methyl-3-oxo-2,3-dihydro-1H-indazol-6-yl)butanamide], in that order: 230 nM and 8.4 nM.
With `COCCC(C(=O)Nc1ccc(C(=O)O)nc1)n1cc2c(cc1=O)-c1cc(Cl)ccc1CC1(CC1)NC2=O` (stereo not drawn) [Example 20, 5-{[2-(11′-Chloro-2′,5′-dioxo-2′,5′,6′,8′-tetrahydro-3′H-spiro[cyclopropane-1,7′-pyrido[3,4-e][3]benzazocine]-3′-yl)-4-methoxybutanoyl]amino}pyridine-2-carboxylic acid], the figures for the IC50 at human plasma kallikrein and on human factor XIa were 4500 nM and 47 nM, respectively.
On the same counts, the results for `COCCC(C(=O)Nc1ccc(C(N)=O)nc1)n1cc2c(cc1=O)-c1cc(Cl)ccc1CC1(CC1)NC2=O` (stereo not drawn) [Example 21, 5-{[2-(11′-Chloro-2′,5′-dioxo-2′,5′,6′,8′-tetrahydro-3′H-spiro[cyclopropane-1,7′-pyrido[3,4-e][3]benzazocine]-3′-yl)-4-methoxybutanoyl]amino}pyridine-2-carboxamide] are 910 nM and 34 nM.
For `COCCC(C(=O)Nc1ccc(C(=O)O)s1)n1cc2c(cc1=O)-c1cc(Cl)ccc1CC1(CC1)NC2=O` (stereo not drawn) [Example 22, 5-{[2-(11′-Chloro-2′,5′-dioxo-2′,5′,6′,8′-tetrahydro-3′H-spiro[cyclopropane-1,7′-pyrido[3,4-e][3]benzazocine]-3′-yl)-4-methoxybutanoyl]amino}thiophene-2-carboxylic acid], in that order: 340 nM and 4 nM.
On the same counts, the results for `COCCC(C(=O)Nc1cc(C(=O)O)cs1)n1cc2c(cc1=O)-c1cc(Cl)ccc1CC1(CC1)NC2=O` (stereo not drawn) [Example 23, 5-{[2-(11′-Chloro-2′,5′-dioxo-2′,5′,6′,8′-tetrahydro-3′H-spiro[cyclopropane-1,7′-pyrido[3,4-e][3]benzazocine]-3′-yl)-4-methoxybutanoyl]amino}thiophene-3-carboxylic acid] are 3900 nM and 100 nM.
For `COCCC(C(=O)Nc1csc(C(=O)O)c1)n1cc2c(cc1=O)-c1cc(Cl)ccc1CC1(CC1)NC2=O` (stereo not drawn) [Example 24, 4-{[2-(11′-Chloro-2′,5′-dioxo-2′,5′,6′,8′-tetrahydro-3′H-spiro[cyclopropane-1,7′-pyrido[3,4-e][3]benzazocine]-3′-yl)-4-methoxybutanoyl]amino}thiophene-2-carboxylic acid], the IC50 on human plasma kallikrein amounted to 800 nM; against human factor XIa, 35 nM.
On the same counts, the results for `CO[C@H]1CC[C@H](CC(C(=O)Nc2ccc(C(=O)O)cc2)n2cc3c(cc2=O)-c2cc(Cl)ccc2CC2(CC2)NC3=O)CC1` (stereo partly drawn) [Example 25, 4-{[2-(11′-Chloro-2′,5′-dioxo-2′,5′,6′,8′-tetrahydro-3′H-spiro[cyclopropane-1,7′-pyrido[3,4-e][3]benzazocine]-3′-yl)-3-(trans-4-methoxycyclohexyl)propanoyl]amino}benzoic acid] are 370 nM and 2.5 nM.
For `CO[C@H]1CC[C@H](CC(C(=O)Nc2ccc(C(N)=O)c(F)c2)n2cc3c(cc2=O)-c2cc(Cl)ccc2CC2(CC2)NC3=O)CC1` (stereo partly drawn) [Example 26, 4-{[2-(11′-Chloro-2′,5′-dioxo-2′,5′,6′,8′-tetrahydro-3′H-spiro[cyclopropane-1,7′-pyrido[3,4-e][3]benzazocine]-3′-yl)-3-(trans-4-methoxycyclohexyl)propanoyl]amino}-2-fluorobenzamide], the half-inhibitory concentration (IC50) against human plasma kallikrein came out at 740 nM; against human factor XIa, 34 nM.
As for `CO[C@H]1CC[C@H](CC(C(=O)Nc2ccc3[nH]c(=O)[nH]c3c2)n2cc3c(cc2=O)-c2cc(Cl)ccc2CC2(CC2)NC3=O)CC1` (stereo partly drawn) [Example 27, 2-(11′-Chloro-2′,5′-dioxo-2′,5′,6′,8′-tetrahydro-3′H-spiro[cyclopropane-1,7′-pyrido[3,4-e][3]benzazocine]-3′-yl)-3-(trans-4-methoxycyclohexyl)-N-(2-oxo-2,3-dihydro-1H-benzimidazol-5-yl)propanamide], the IC50 worked out at 250 nM on human plasma kallikrein and 18 nM against human factor XIa.
For `O=C(O)c1ccc(NC(=O)C(Cc2ccccc2)n2cc3c(cc2=O)-c2cc(Cl)ccc2CC2(CC2)NC3=O)cc1` (stereo not drawn) [Example 28, 4-{[2-(11′-Chloro-2′,5′-dioxo-2′,5′,6′,8′-tetrahydro-3′H-spiro[cyclopropane-1,7′-pyrido[3,4-e][3]benzazocine]-3′-yl)-3-phenylpropanoyl]amino}benzoic acid], the half-inhibitory concentration (IC50) was found to be 55 nM against human plasma kallikrein and 1.8 nM at human factor XIa.
